Assay results: patent US12649717B2, “Cyanine-derived compound, preparation method therefor, and application thereof” (priority 2020, dated 2026)

Columns and labels:
[1] = system: HeLa cells; assay: Phototoxicity assay: HeLa cell viability (PI staining) after LED irradiation; details: for Cell viability under 1-minute irradiation / Cell viability under 5-minute irradiation / Cell viability under 15-minute irradiation: PI viability counting after 2 hours at 37° C.
Experimental: HeLa cells were irradiated with corresponding LED light (same light intensity for the same channel) for different periods of time under a widefield fluorescence microscope. The irradiated cells were incubated for 2 hours in a cell incubator at 37° C. Then, the cells were stained with propidium iodide (PI) for viability counting.

[2] = system: Rat cardiomyocytes; assay: 3D-laser confocal time-series imaging of labeled rat cardiomyocytes; assay type: cell-based; details: 250 nM, 10-15 minutes staining
Experimental: Then, different microscopic imaging experiments were carried out.

| SMILES | Cell viability under 1-minute irradiation [1] [%] | Cell viability under 5-minute irradiation [1] [%] | Cell viability under 15-minute irradiation [1] [%] | Time sequences after which labeled cells violently contracted to death [2] [time sequences] | Phototoxicity relative to commercial dyes (times less phototoxic) ([1]; HeLa cells, versus MTR CMXRos, MTDR (b53 also versus non-optimized compounds of 1-6)) | Phototoxicity comparison (in words) ([1]; cell viability after continuous irradiation under high light intensity) |
| --- | --- | --- | --- | --- | --- | --- |
| C[N+]1=C(/C=C/C=C/C=C2\N(Cc3ccc(CCl)cc3)c3ccccc3C2(C)C)C(C)(C)c2ccccc21.[Cl-] [MitoTracker Deep Red FM] | 100 | 0 | 0 | 8 | – | – |
| ClCc1ccc(C2=c3cc4c5c(c3Oc3c2cc2c6c3CCCN6CCC2)CCC[N+]=5CCC4)cc1.[Cl-] [MitoTracker Red CMXRos] | 86.9 | 0 | 0 | – | – | – |
| CC1(C)C(/C=C/C=C2/N(CCOC(=O)c3ccccc3)c3ccc4ccccc4c3C2(C)C)=[N+](CCOC(=O)c2ccccc2)c2ccc3ccccc3c21.[Br-] [Probe 1-6-1] | 100 | 95 | 25 | – | – | – |
| CC1=[N+](CCN)c2ccc3ccccc3c2C1(C)C.[Br-] [Probe 1-6] | 100 | 99 | 95 | – | about 5 times | lower phototoxicity |
